Read-outs that look alike come from different tables or passages of the source.
What was measured:
BRD4 (BD1) = target: T1, BRD4 (BD1) (Homo sapiens, UniProt O60885); assay: BRD4 AlphaLisa binding assay
T1 construct: His; made in house
Procedure, shortened: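 BRD4 (BD1) (30 nM final) with peptide (200 nM final) in 40 mM HEPES pH 7.0, 40 mM NaCl, 1 mM DTT, 0.01% BSA, 0.008% Brij-35, 1.2% DMSO, 20 min at RT with compound.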

[1] = tested on: MYC mRNA in MV4:11 (AML) cells; assay: cMyc RNA quantification assay (QuantiGene) in MV4:11 cells; assay type: cell-based; details: Homo sapiens, 4 h, QuantiGene 2.0
Description: B. cMyc RNA Quantification Assay (QuantiGene® Assay):
MV4:11 (AML) cells were seeded in a 96-well plate and incubated in the presence of various concentrations of compounds for 4 h. Relative mRNA levels were quantitated by using QuantiGene 2.0 assay (Affymetrix) according to the manufacturer's recommendation. Signals were detected by using an Envision plate reader (Perkin-Elmer). Biological duplicates were averaged and normalized to vehicle (DMSO) control to calculate percent MYC mRNA levels.

[2] = tested on: IL-6 secretion in THP-1 cells; assay: Cell-based IL-6 quantification assay (ELISA, Mesoscale) in LPS-treated THP-1 cells; details: Homo sapiens, LPS 4 μg/mL, 16 h, ELISA value/CellTiter-Glo ratio
Procedure, shortened: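 THP-1 cells (100,000/well, RPMI-10% FBS) stimulated with 4 μg/mL LPS and incubated 16 h with compound at various concentrations. Supernatant IL-6 measured by Mesoscale ELISA, normalized to CellTiter-Glo cell content; % inhibition of secretion from the ratio.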

[3] = BRD4 (BD1) 30 nM, biotinylated H4-tetraacetyl peptide 200 nM, read-out: BRD4 AlphaLisa

Row | Structure (SMILES) | IC50 (BRD4 (BD1); [3]) [nM] | IC50 [1] [nM] | IC50 [2] [nM] | IC50 (BRD4 (BD1)) [nM]
1 | Cc1nnc2n1-c1ccc(-c3ccc(N)nc3)cc1N(c1ccc(C(N)=O)cc1)CC2C (stereo in doubt) [Compound 69, (R)-4-(8-(6-aminopyridin-3-yl)-1,4-dimethyl-4H-benzo[b][1,2,4]triazolo[4,3-d][1,4]diazepin-6(5H)-yl)benzamide] | 100 to 1000 | 1000 to 10000 | 1000 to 10000 | –
2 | Cc1nnc2n1-c1ccccc1N(c1ccc(Cl)cc1)CC2(C)C [Compound 3, 6-(4-chlorophenyl)-1,4,4-trimethyl-5,6-dihydro-4H-benzo[b][1,2,4]triazolo[4,3-d][1,4]diazepine] | – | 1000 to 10000 | 100 to 1000 | 100 to 1000
3 | Cc1nnc2n1-c1ccc(-c3ccc(=O)[nH]c3)cc1N(c1ccc(Cl)cn1)C[C@H]2C [Compound 82, (R)-5-(6-(5-chloropyridin-2-yl)-1,4-dimethyl-5,6-dihydro-4H-benzo[b][1,2,4]triazolo[4,3-d][1,4]diazepin-8-yl)pyridin-2(1H)-one] | 100 to 1000 | 100 to 1000 | > 1000 | –
4 | Cc1nnc2n1-c1ccc(C(=O)N3CCCC3)cc1N(c1ccc(Cl)cc1)C[C@H]2C [Compound 53, 4-R-4H-[1,2,4]triazolo[4,3-a][1,5]benzodiazepine,5,6-dihydro-1,4-dimethyl-8-(pyrrolidine-1-carbonyl)-6-(4-chloro-phenyl)] | 100 to 1000 | 1000 to 10000 | 100 to 1000 | –
5 | Cc1nc(-c2ccc3c(c2)N(c2ccc(Cl)cc2)C[C@@H](C)c2nnc(C)n2-3)no1 [Compound 50, 4-R-4H-[1,2,4]triazolo[4,3-a][1,5]benzodiazepine, 5,6-dihydro-1,4-dimethyl-8-(5-methyl-1,2,4-oxadiazol-3-yl)-6-(4-chloro-phenyl)] | 100 to 1000 | < 100 | < 100 | –
6 | Cc1nnc2n1-c1ccccc1N(c1ccc(Cl)cc1)CC2 [Compound 2, 6-(4-chlorophenyl)-1-methyl-5,6-dihydro-4H-benzo[b][1,2,4]triazolo[4,3-d][1,4]diazepine] | – | 1000 to 10000 | 1000 to 10000 | 100 to 1000
7 | Cc1nnc2n1-c1ccccc1N(c1ccc(Cl)cc1)CC2C (stereo not drawn) [Compound 1, 6-(4-chlorophenyl)-1,4-dimethyl-5,6-dihydro-4H-benzo[b][1,2,4]triazolo[4,3-d][1,4]diazepine] | – | 100 to 1000 | 100 to 1000 | 100 to 1000
8 | Cc1nnc2n1-c1ccc(-c3cn[nH]c3)cc1N(c1ccc(C#N)cc1)C[C@H]2C [Compound 80, (R)-4-(1,4-dimethyl-8-(1H-pyrazol-4-yl)-4H-benzo[b][1,2,4]triazolo[4,3-d][1,4]diazepin-6(5H)-yl)benzonitrile] | < 100 | < 100 | < 100 | –
9 | Cc1nnc2n1-c1ccc(-c3ccc(C(=O)O)cc3)cc1N(c1ccc(Cl)cc1)CC2 [Compound 20, 4H-[1,2,4]triazolo[4,3-a][1,5]benzodiazepine,5,6-dihydro-1-methyl-8-(4-carboxy-phenyl)-6-(4-chloro-phenyl)] | < 100 | 100 to 1000 | 100 to 1000 | –
10 | Cc1nnc2n1-c1ccc(-c3ccc(N)nc3)cc1N(c1ccc(Cl)cc1)C[C@@H]2C [Compound 27, (S)-4H-[1,2,4]triazolo[4,3-a][1,5]benzodiazepine, 5,6-dihydro-1,4-dimethyl-8-(6-aminopyridin-3-yl)-6-(4-chloro-phenyl)] | 100 to 1000 | 1000 to 10000 | 100 to 1000 | –

Now from value to molecule, other results behind:

Row | IC50 (BRD4 (BD1); [3]) [nM] | IC50 [1] [nM] | IC50 [2] [nM] | Structure (SMILES) | IC50 (BRD4 (BD1)) [nM]
11 | < 100 | < 100 | < 100 | Cc1nnc2n1-c1ccc(-c3cnc(N)cn3)cc1N(c1ccc(Cl)cc1)C[C@H]2C [Compound 55, 4-R-4H-[1,2,4]triazolo[4,3-a][1,5]benzodiazepine,5,6-dihydro-1,4-dimethyl-8-(5-aminopyrazin-2-yl)-6-(4-chloro-phenyl)] | –
12 | < 100 | < 100 | < 100 | Cc1nnc2n1-c1ccc(-c3cn(C)nn3)cc1N(c1ccc(Cl)cc1)C[C@H]2C [Compound 64, 4H-[1,2,4]Triazolo[4,3-a][1,5]benzodiazepine, 5,6-dihydro-1,4-dimethyl-8-(1-methyl-2H-1,2,3-triazole-4-yl)-6-(4-chloro-phenyl)] | –
13 | < 100 | < 100 | < 100 | Cc1nnc2n1-c1ccc(-n3cncn3)cc1N(c1ccc(Cl)cc1)C[C@H]2C [Compound 54, (R)-6-(4-chlorophenyl)-1,4-dimethyl-8-(1H-1,2,4-triazol-1-yl)-5,6-dihydro-4H-benzo[b][1,2,4]triazolo[4,3-d][1,4]diazepine] | –
14 | < 100 | 1000 to 10000 | 1000 to 10000 | Cc1nnc2n1-c1ccc(-c3ccc(N)nc3)cc1N(c1ccc(N)nc1)C[C@H]2C [Compound 71, (R)-5,5′-(1,4-dimethyl-4H-benzo[b][1,2,4]triazolo[4,3-d][1,4]diazepine-6,8(5H)-diyl)dipyridin-2-amine] | –
15 | < 100 | < 100 | < 100 | Cc1ncn(-c2ccc3c(c2)N(c2ccc(Cl)cc2)C[C@@H](C)c2nnc(C)n2-3)n1 [Compound 66, (R)-6-(4-chlorophenyl)-1,4-dimethyl-8-(3-methyl-1H-1,2,4-triazol-1-yl)-5,6-dihydro-4H-benzo[b][1,2,4]triazolo[4,3-d][1,4]diazepine] | –
16 | < 100 | < 100 | < 100 | Cc1nnc2n1-c1ccc(-c3cnn(C)n3)cc1N(c1ccc(C#N)cc1)C[C@H]2C [Compound 75, (S)-4H-[1,2,4]Triazolo[4,3-a][1,5]benzodiazepine, 5,6-dihydro-1,4-dimethyl-8-(2-methyl-2H-1,2,3-triazole-4-yl)-6-(4-cyano-phenyl)] | –
17 | < 100 | < 100 | < 100 | Cc1ccc(-c2ccc3c(c2)N(c2ccc(Cl)cc2)C[C@@H](C)c2nnc(C)n2-3)cn1 [Compound 29, (R)-4H-[1,2,4]triazolo[4,3-a][1,5]benzodiazepine, 5,6-dihydro-1,4-dimethyl-8-(6-methylpyridin-3-yl)-6-(4-chloro-phenyl)] | –
18 | < 100 | < 100 | < 100 | Cc1nnc2n1-c1ccc(-c3ccc(N)nc3)cc1N(c1ccc(Cl)cc1)C[C@H]2C [Compound 26, (R)-4H-[1,2,4]triazolo[4,3-a][1,5]benzodiazepine, 5,6-dihydro-1,4-dimethyl-8-(6-aminopyridin-3-yl)-6-(4-chloro-phenyl)] | –
19 | < 100 | < 100 | < 100 | Cc1nnc2n1-c1ccc(-c3ccc(=O)n(C)c3)cc1N(c1ccc(Cl)cc1)C[C@H]2C [Compound 62, (R)-5-(6-(4-chlorophenyl)-1,4-dimethyl-5,6-dihydro-4H-benzo[b][1,2,4]triazolo[4,3-d][1,4]diazepin-8-yl)-1-methylpyridin-2(1H)-one] | –
